In US8431356B2, “Fluorescence resonance energy transfer assays for sarco/endoplasmic reticulum calcium atpase and phospholamban” (Regents of the University of Minnesota, priority 2009, dated 2013):

Columns and labels:
[1] = system: LNCaP prostate cancer cells; conditions: administration of thapsigargin; cited from earlier work
[2] = molecular target: T1, SERCA (Oryctolagus cuniculus, UniProt P04191); assay: Functional potency of PLB variants by ATPase assay (reconstituted SERCA/PLB); assay type: biochemical; conditions: shift in pCa for 50% activation of SERCA, 5 PLB/SERCA, mean±SEM
T1 construct: from tissue
Text: (§1) For intermolecular FRET, IAEDANS-SERCA was reconstituted with DABCYL-PLB essentially as described previously (see Reddy et al., (1999) J. Biol. Chem. 274:7649-7655; Reddy et al., (1995) J. Biol. Chem. 270:9390-9397; Reddy et al., (1996) J. Biol. Chem. 271:14964-14970) but adapted to modify the SERCA membrane concentration (molar ratio, SERCA/1000 lipids) and PLB-to-SERCA ratio (molar ratio PLB/SERCA). The desired amount of DABCYL-PLB in methanol and lipids (DOPC and DOPE, 4:1 weight ratio in chloroform) were gently mixed and dried over nitrogen gas to create a thin film. Residual solvent was removed under vacuum and desiccant overnight. Lipids and peptides were solubilized in reconstitution buffer (5 mM MgCl2, 0.1M KCl, 10% glycerol, 20 mM MOPS, pH 7.0) by vortexing thoroughly, followed by mild sonication for 30 seconds to form unilamellar vesicles. C12E8 (2 mg/mg of lipid) was added to the tube. Detergent was removed over a 3 hour period using Biobeads SM2 (25 mg/mg of C12E8). FRET was measured immediately following reconstitution. Samples were frozen until gel electrophoresis.
(§2) ATPase activity was measured using an NADH-linked, enzyme-coupled microtiter plate assay (200 μL/well) as described in Karim et al., (2000) J. Biol. Chem. 276, 38814-9 and Reddy et al., (2003) Biochemistry 42, 4585-92. [Ca2+] was controlled by Ca/EGTA buffering by the method described in Fabiato et al., (1979) J. Physiol. (Paris) 75:463-505. The assays were detected at 340 nm on a Spectramax Plus microplate spectrophotometer (Molecular Devices) at 25° C. in the presence of ionophore A23187 to dissipate the Ca gradient building up across the membranes due to ATPase activity. The data were plotted (V vs pCa) and fitted by the Hill equation: […]
where V is the initial ATPase rate and n is the Hill coefficient. Data were normalized to the maximal rate, Vmax, which was obtained from the fit, and replotted to determine the shift in pKCa.
(§3) Functional potency was measured by ATPase assay as ΔpKCa, which stands for the shift in pCa value required for 50% activation of SERCA, at a ratio of 5 PLB/SERCA. FRET potency was measured as E(5), the energy transfer efficiency found at a ratio of 5 PLB/SERCA (N=4-6, mean±SEM).

[3] = molecular target: T1, SERCA; assay: FRET potency of PLB variants, IAEDANS-SERCA/DABCYL-PLB; assay type: binding; conditions: energy transfer efficiency at 5 PLB/SERCA, mean±SEM
Text: as §1
(§4) The plates were read at 25° C. using a Gemini EM fluorescence microplate reader, with bottom excitation at 350 nm (6 flashes). The spectra were obtained with 10 nm resolution between 420 and 600 nm (PMT sensitivity set to High). Total read time per plate was estimated to be 20 minutes.
The free calcium concentration, [Ca^2+], was controlled by Ca/EGTA buffering, calculated by the method disclosed in Fabiato et al., (1979) J. Physiol. (Paris) 75:463-505. Measurements were conducted in low-Ca (pCa 6.5) buffer (50 mM KCl, 5 mM MgCl2, 0.5 mM EGTA, 210 μM CaCl2, 50 mM MOPS, pH 7.0), where the inhibitory effect of PLB was maximal.
(§5) The fluorescence resonance energy transfer efficiency (E) was calculated from the fractional decrease of steady-state emission of the donor (FD) due to the presence of the acceptor (FDA):
as §3

[4] = system: SERCA-PLB complex; assay: Competition of LOF PLB mutants with active PLB, ATPase activity; assay type: biochemical; conditions: 5 moles each per mole SERCA
Method: as §2
(§6) The competition of WT-PLB and PLB derivatives was assessed by ATPase activity (e.g., Example 11) and FRET assays (e.g., Example 8). A reconstituted sample containing 5 moles of acceptor-labeled active PLB (WT or I40A) and 5 moles of an unlabeled loss-of-function (LOF) mutant (L31A or S16E) per mole of SERCA was compared with a control, a reconstituted sample with 5 moles of an active PLB (WT or I40A) per mole of SERCA. Competition was measured as the fractional decrease in ΔpKCa or FRET efficiency E, due to the presence of the LOF mutant (N=3-6, mean±SEM).

[5] = system: SERCA-PLB complex; assay: Competition of LOF PLB mutants with acceptor-labeled active PLB, FRET; assay type: binding; conditions: 5 moles each per mole SERCA
Method: as §4, §5, §6

[6] = competitor vs acceptor-labeled I40A PLB
[7] = competitor vs acceptor-labeled WT PLB

T1 sequence (P04191 1-994 isoform P04191-2): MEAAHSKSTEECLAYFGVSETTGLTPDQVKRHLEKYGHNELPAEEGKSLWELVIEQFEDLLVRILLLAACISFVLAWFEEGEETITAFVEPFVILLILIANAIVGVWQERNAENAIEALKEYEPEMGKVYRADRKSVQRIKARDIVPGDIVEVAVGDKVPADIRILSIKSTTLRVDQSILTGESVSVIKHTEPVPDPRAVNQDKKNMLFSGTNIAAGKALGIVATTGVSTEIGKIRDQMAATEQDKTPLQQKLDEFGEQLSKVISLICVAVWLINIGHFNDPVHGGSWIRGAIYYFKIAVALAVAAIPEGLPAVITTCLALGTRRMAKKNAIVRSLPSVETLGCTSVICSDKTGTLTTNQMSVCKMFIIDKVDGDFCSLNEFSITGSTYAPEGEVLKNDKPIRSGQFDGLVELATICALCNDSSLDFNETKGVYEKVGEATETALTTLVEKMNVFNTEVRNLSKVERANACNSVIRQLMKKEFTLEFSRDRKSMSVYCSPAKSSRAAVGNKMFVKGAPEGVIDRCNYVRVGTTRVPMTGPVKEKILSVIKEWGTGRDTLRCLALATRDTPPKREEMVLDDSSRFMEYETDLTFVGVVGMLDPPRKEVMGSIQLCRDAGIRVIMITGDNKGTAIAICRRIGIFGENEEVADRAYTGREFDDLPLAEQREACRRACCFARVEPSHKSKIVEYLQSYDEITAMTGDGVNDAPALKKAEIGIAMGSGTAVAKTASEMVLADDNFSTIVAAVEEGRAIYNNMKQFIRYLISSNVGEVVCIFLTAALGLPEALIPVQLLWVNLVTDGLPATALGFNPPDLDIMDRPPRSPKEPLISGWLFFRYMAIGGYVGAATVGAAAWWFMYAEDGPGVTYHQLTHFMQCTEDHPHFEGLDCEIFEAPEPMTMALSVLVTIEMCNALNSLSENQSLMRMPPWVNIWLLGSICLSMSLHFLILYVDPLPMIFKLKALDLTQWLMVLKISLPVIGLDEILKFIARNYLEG

Compound | growth of LNCaP prostate cancer cells in mice [1] | Functional potency (ΔpKCa) [2] | FRET potency, E(5) [3] | Functional relief (fractional decrease in ΔpKCa) ([4]; competitor vs I40A PLB) | Functional relief (fractional decrease in ΔpKCa) ([4]; competitor vs WT PLB) | FRET relief (fractional decrease in FRET efficiency E) [5, 6] | FRET relief (fractional decrease in FRET efficiency E) [5, 7]
C/C=C(/C)C(=O)O[C@H]1C(C)=C2[C@H]([C@@H]1OC(=O)CCCCCCC)[C@@](C)(OC(C)=O)C[C@H](OC(=O)CCC)[C@@]1(O)[C@H]2OC(=O)[C@@]1(C)O [thapsigargin] | inhibited | – | – | – | – | – | –
I40A: PLB derivative, isoleucine to alanine at position 40; monomeric, superinhibitory gain-of-function mutant (MEKVQYLTRSAIRRASTIEMPQQARQKLQNLFINFCLILACLLLICIIVMLL; UniProt P26678 1-52, looked up, variant I40A) | – | 0.48 ± 0.03 | 0.69 ± 0.03 | – | – | – | –
L31A: PLB derivative, leucine to alanine at position 31; loss-of-function (LOF) mutant (MEKVQYLTRSAIRRASTIEMPQQARQKLQNAFINFCLILICLLLICIIVMLL; UniProt P26678 1-52, looked up, variant L31A) | – | 0.05 ± 0.01 | 0.45 ± 0.03 | 0.47 ± 0.06 | 0.79 ± 0.04 | 0.18 ± 0.12 | 0.37 ± 0.06
S16E: PLB derivative, serine to glutamate at position 16; loss-of-function (LOF) mutant (MEKVQYLTRSAIRRAETIEMPQQARQKLQNLFINFCLILICLLLICIIVMLL; UniProt P26678 1-52, looked up, variant S16E) | – | 0.07 ± 0.02 | 0.69 ± 0.02 | 0.40 ± 0.03 | 0.83 ± 0.05 | 0.15 ± 0.08 | 0.27 ± 0.10
WT: wild-type phospholamban (PLB), made by solid-phase peptide synthesis | – | 0.18 ± 0.02 | 0.60 ± 0.03 | – | – | – | –
